Assay results from patent publication US20180320217A1, “METHODS FOR SAMPLING AND MEASURING ORAL LAVAGE PROTEINS” (The Procter & Gamble Company, priority 2017, published 2018).
“And” between values parts separate entries of the source, which are not always exact repeats. Equal values may be shown once. “Also recorded” adds a separate entry of the source.

Key:
oral lavage [1] = assay: Formation of formazan dyes: oral lavage and 1-Methoxy PMS, absence of malate (TABLE 19); format: biochemical, human
[2] = Formation of formazan dyes: NADH, malate and 1-methoxy PMS (TABLE 16); format: biochemical
[3] = Formation of formazan dyes: NADH and 1-methoxy PMS, absence of malate (TABLE 15); format: biochemical
diaphorase [4] = assay: Formation of formazan dyes: NADH and diaphorase, absence of malate (TABLE 7); format: biochemical, Clostridium kluyveri; conditions: NADH and diaphorase, absence of malate
Malate dehydrogenase = biological target: T1, Malate dehydrogenase (Sus scrofa, UniProt P00346); assay: Formation of formazan dyes: Malate dehydrogenase and 1-Methoxy PMS, absence of malate (TABLE 17); format: biochemical, pig heart; set-up: L-malate dehydrogenase (pig heart); purchased Sigma-Aldrich 10127248001 / 10127914001
T1 sequence (P00346 25-338): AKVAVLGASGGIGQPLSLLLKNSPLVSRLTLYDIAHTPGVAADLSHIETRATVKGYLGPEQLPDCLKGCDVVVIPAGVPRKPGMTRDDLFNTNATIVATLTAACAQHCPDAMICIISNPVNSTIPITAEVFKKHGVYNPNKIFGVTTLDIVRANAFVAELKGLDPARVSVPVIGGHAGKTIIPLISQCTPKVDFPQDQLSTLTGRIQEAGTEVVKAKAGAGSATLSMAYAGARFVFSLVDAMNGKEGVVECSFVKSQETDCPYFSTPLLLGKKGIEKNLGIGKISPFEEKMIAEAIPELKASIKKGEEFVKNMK

[5] = Formation of formazan dyes: control buffer and 1-Methoxy PMS, absence of malate (TABLE 21); format: biochemical
[6] = Formation of formazan dyes: control buffer, malate and 1-Methoxy PMS (TABLE 22); format: biochemical
diaphorase [7] = assay: Formation of formazan dyes: NADH, diaphorase and malate (TABLE 8); format: biochemical, Clostridium kluyveri; conditions: NADH, diaphorase and malate
[8] = test system: Malate dehydrogenase and diaphorase; assay: Formation of formazan dyes: Malate dehydrogenase, diaphorase and malate (TABLE 10); format: biochemical, pig heart
diaphorase [9] = assay: Formation of formazan dyes: only diaphorase, not malate (TABLE 13); format: biochemical, Clostridium kluyveri; conditions: mean of three experiments
diaphorase [10] = assay: Formation of formazan dyes: only diaphorase and malate (TABLE 14); format: biochemical, Clostridium kluyveri; conditions: mean of three experiments
oral lavage [11] = assay: Formation of formazan dyes: oral lavage, malate and diaphorase (TABLE 12); format: biochemical, human; conditions: oral lavage, malate and diaphorase
[12] = test system: Malate dehydrogenase and diaphorase; assay: Formation of formazan dyes: Malate dehydrogenase and diaphorase, absence of malate (TABLE 9); format: biochemical, pig heart
oral lavage [13] = assay: Formation of formazan dyes: oral lavage and diaphorase, not malate (TABLE 11); format: biochemical, human

2-Benzothiazoryl-3-(4-carboxy-2-methoxyphenyl)-5-[4-(2-sulfoethylcarbamoyl)phenyl]-2H-tetrazolium [WST-4]
Absorbance, formation of formazan dyes (Means) (oral lavage [1]): 0.78 and 1.07 and 1.15 and 1.22 | Absorbance, formation of formazan dyes (Means) [2]: 1.32 and 1.31 and 1.29 and 1.30 | Absorbance, formation of formazan dyes (Means) [3]: 1.52 and 1.57 and 1.64 | Formation of formazan dyes, absorbance, Means 0 h (diaphorase [4]; 0 h): 1.96 | Formation of formazan dyes, absorbance, Means 1 h (diaphorase [4]; 1 h): 2.01 | Formation of formazan dyes, absorbance, Means 2 h (diaphorase [4]; 2 h): 2.04 | Formation of formazan dyes, absorbance, Means 3 h (diaphorase [4]; 3 h): 2.08 | Formation of formazan dyes, absorbance, Means 4 h (diaphorase [4]; 4 h): 2.20 | Formation of formazan dyes, absorbance, Means 6 h (diaphorase [4]; 6 h): 2.25 | Formation of formazan dyes, absorbance, Means 8 h (diaphorase [4]; 8 h): 2.29 | Formation of formazan dyes, absorbance, Means 10 h (diaphorase [4]; 10 h): 2.30 | Formation of formazan dyes, absorbance, Means 12 h (diaphorase [4]; 12 h): 2.32 | Absorbance, formation of formazan dyes (Means) (Malate dehydrogenase): 0.27 and 0.29 and 0.31 and 0.38 | reduction by malate dehydrogenase alone (Malate dehydrogenase): did not catalyze the reduction | Absorbance, formation of formazan dyes (Means) [5]: 0.30 and 0.34 and 0.43 and 0.44 | Means absorbance 0 h [6]: 0.13 | Means absorbance 1 h [6]: 0.13 | Means absorbance 2 h [6]: 0.13 | Means absorbance 3 h [6]: 0.15 | Formation of formazan dyes, absorbance, Means 0 h (diaphorase [7]; 0 h): 1.92 | Formation of formazan dyes, absorbance, Means 1 h (diaphorase [7]; 1 h): 1.91 | Formation of formazan dyes, absorbance, Means 2 h (diaphorase [7]; 2 h): 1.91 | Formation of formazan dyes, absorbance, Means 3 h (diaphorase [7]; 3 h): 1.89 | Formation of formazan dyes, absorbance, Means 4 h (diaphorase [7]; 4 h): 1.97 | Formation of formazan dyes, absorbance, Means 6 h (diaphorase [7]; 6 h): 1.94 | Formation of formazan dyes, absorbance, Means 8 h (diaphorase [7]; 8 h): 1.92 | Formation of formazan dyes, absorbance, Means 10 h (diaphorase [7]; 10 h): 1.88 | Formation of formazan dyes, absorbance, Means 12 h (diaphorase [7]; 12 h): 1.83 | Formation of formazan dyes, absorbance, Means 0 h ([8]; Malate dehydrogenase, diaphorase and malate, 0 h): 0.51 | Formation of formazan dyes, absorbance, Means 1 h ([8]; Malate dehydrogenase, diaphorase and malate, 1 h): 0.81 | Formation of formazan dyes, absorbance, Means 2 h ([8]; Malate dehydrogenase, diaphorase and malate, 2 h): 0.99 | Formation of formazan dyes, absorbance, Means 3 h ([8]; Malate dehydrogenase, diaphorase and malate, 3 h): 1.13 | Formation of formazan dyes, absorbance, Means 4 h ([8]; Malate dehydrogenase, diaphorase and malate, 4 h): 1.25 | Formation of formazan dyes, absorbance, Means 6 h ([8]; Malate dehydrogenase, diaphorase and malate, 6 h): 1.43 | Formation of formazan dyes, absorbance, Means 8 h ([8]; Malate dehydrogenase, diaphorase and malate, 8 h): 1.57 | Formation of formazan dyes, absorbance, Means 10 h ([8]; Malate dehydrogenase, diaphorase and malate, 10 h): 1.68 | Formation of formazan dyes, absorbance, Means 12 h ([8]; Malate dehydrogenase, diaphorase and malate, 12 h): 1.75 | conversion to reduced formazan dyes ([8]; malate dehydrogenase, diaphorase and malate (TABLE 10)): converted to reduced formazan dyes in a time-dependent fashion; also recorded: able to catalyze the reduction | Absorbance, formation of formazan dyes (Means) (diaphorase [9]; 0 h): 0.22 | Absorbance, formation of formazan dyes (Means) (diaphorase [9]; 1 h): 0.35 | Absorbance, formation of formazan dyes (Means) (diaphorase [9]; 2 h): 0.40 | Absorbance, formation of formazan dyes (Means) (diaphorase [9]; 3 h): 0.40 | Absorbance, formation of formazan dyes (Means) (diaphorase [9]; 4 h): 0.38 | Absorbance, formation of formazan dyes (Means) (diaphorase [9]; 6 h): 0.30 | Absorbance, formation of formazan dyes (Means) (diaphorase [9]; 8 h): 0.32 | Absorbance, formation of formazan dyes (Means) (diaphorase [9]; 10 h): 0.36 | Absorbance, formation of formazan dyes (Means) (diaphorase [9]; 12 h): 0.39 | Absorbance, formation of formazan dyes (Means) (diaphorase [10]; 0 h): 0.08 | Absorbance, formation of formazan dyes (Means) (diaphorase [10]; 1 h): 0.10 | Absorbance, formation of formazan dyes (Means) (diaphorase [10]; 2 h): 0.12 | Absorbance, formation of formazan dyes (Means) (diaphorase [10]; 3 h): 0.14 | Absorbance, formation of formazan dyes (Means) (diaphorase [10]; 4 h): 0.16 | Absorbance, formation of formazan dyes (Means) (diaphorase [10]; 6 h): 0.19 | Absorbance, formation of formazan dyes (Means) (diaphorase [10]; 8 h): 0.23 | Absorbance, formation of formazan dyes (Means) (diaphorase [10]; 10 h): 0.26 | Absorbance, formation of formazan dyes (Means) (diaphorase [10]; 12 h): 0.27 | Formation of formazan dyes, absorbance, Means 0 h (oral lavage [11]; 0 h): 0.44 | Formation of formazan dyes, absorbance, Means 1 h (oral lavage [11]; 1 h): 0.56 | Formation of formazan dyes, absorbance, Means 2 h (oral lavage [11]; 2 h): 0.63 | Formation of formazan dyes, absorbance, Means 3 h (oral lavage [11]; 3 h): 0.67 | Formation of formazan dyes, absorbance, Means 4 h (oral lavage [11]; 4 h): 0.77 | Formation of formazan dyes, absorbance, Means 6 h (oral lavage [11]; 6 h): 0.83 | Formation of formazan dyes, absorbance, Means 8 h (oral lavage [11]; 8 h): 0.89 | Formation of formazan dyes, absorbance, Means 10 h (oral lavage [11]; 10 h): 0.96 | Formation of formazan dyes, absorbance, Means 12 h (oral lavage [11]; 12 h): 0.95 | Formation of formazan dyes, absorbance, Means 0 h ([12]; Malate dehydrogenase and diaphorase, absence of malate, 0 h): 0.51 | Formation of formazan dyes, absorbance, Means 1 h ([12]; Malate dehydrogenase and diaphorase, absence of malate, 1 h): 0.83 | Formation of formazan dyes, absorbance, Means 2 h ([12]; Malate dehydrogenase and diaphorase, absence of malate, 2 h): 0.99 | Formation of formazan dyes, absorbance, Means 3 h ([12]; Malate dehydrogenase and diaphorase, absence of malate, 3 h): 1.06 | Formation of formazan dyes, absorbance, Means 4 h ([12]; Malate dehydrogenase and diaphorase, absence of malate, 4 h): 1.17 | Formation of formazan dyes, absorbance, Means 6 h ([12]; Malate dehydrogenase and diaphorase, absence of malate, 6 h): 1.24 | Formation of formazan dyes, absorbance, Means 8 h ([12]; Malate dehydrogenase and diaphorase, absence of malate, 8 h): 1.35 | Formation of formazan dyes, absorbance, Means 10 h ([12]; Malate dehydrogenase and diaphorase, absence of malate, 10 h): 1.44 | Formation of formazan dyes, absorbance, Means 12 h ([12]; Malate dehydrogenase and diaphorase, absence of malate, 12 h): 1.47 | reduction of tetrazolium dye in the absence of substrate malate ([12]; malate dehydrogenase and diaphorase (TABLE 9)): partially reduced | Formation of formazan dyes, absorbance, Means 0 h (oral lavage [13]; oral lavage and diaphorase, not malate, 0 h): 0.55 | Formation of formazan dyes, absorbance, Means 1 h (oral lavage [13]; oral lavage and diaphorase, not malate, 1 h): 0.74 | Formation of formazan dyes, absorbance, Means 2 h (oral lavage [13]; oral lavage and diaphorase, not malate, 2 h): 0.76 | Formation of formazan dyes, absorbance, Means 3 h (oral lavage [13]; oral lavage and diaphorase, not malate, 3 h): 0.80 | Formation of formazan dyes, absorbance, Means 4 h (oral lavage [13]; oral lavage and diaphorase, not malate, 4 h): 0.78 | Formation of formazan dyes, absorbance, Means 6 h (oral lavage [13]; oral lavage and diaphorase, not malate, 6 h): 0.88 | Formation of formazan dyes, absorbance, Means 8 h (oral lavage [13]; oral lavage and diaphorase, not malate, 8 h): 0.90 | Formation of formazan dyes, absorbance, Means 10 h (oral lavage [13]; oral lavage and diaphorase, not malate, 10 h): 0.87 | Formation of formazan dyes, absorbance, Means 12 h (oral lavage [13]; oral lavage and diaphorase, not malate, 12 h): 0.93 | reduction to formazan dyes by pooled oral lavage (oral lavage [13]; pooled oral lavage of high bleeder group, diaphorase, no added malate (TABLE 11)): partially reduced to formazan dyes
